From patent publication US20220242874A1, “CAMPTOTHECIN DERIVATIVES” (SUN PHARMA ADVANCED RESEARCH COMPANY LIMITED, priority 2019, published 2022)
Where a name gives a salt, the structure may show the parent alone. Read-outs that look alike come from different tables or passages of the source.

Legend:
NCI H187 cells = experiment: In-vitro cancer cell growth inhibition assay (MTT); format: cell-based; details: Homo sapiens, NCI-H187, read-out: IC50 (nM) NCI H187
Method: The compounds of the present invention were evaluated for their ability to inhibit the growth of various cell line models of small cell lung cancer (SCLC), colon cancer, pancreatic cancer and triple negative breast cancer (TNBC) in-vitro. Details of the cell lines and their respective complete growth media are described in Table 3. The growth inhibition assay was carried out as described below. Briefly, cells in complete growth media were seeded in 96-well plates at appropriate cell densities (seeding density details described in Table 3) and incubated at 37° C., 5% CO2 (3-4 hours for NCI-H526, NCI-H69, NCI-H187 and overnight for the rest of the cells). Serial dilutions of test compound in DMSO were added to the cells while maintaining the final DMSO concentration of 0.4%-0.5% in the well. […] Subsequently, MTT (final concentration 0.5 mg/mL in media) was incubated with the cells at 37° C., 5% CO2 for 4-5 hours. The formazan crystals were dissolved overnight at 37° C., 5% CO2 using 100 μL extractant (10% SDS in 0.01N HCl) and quantified using absorbance at 570 nm with reference wavelength 630 nm. Growth inhibition was represented as percent decrease in absorbance compared to vehicle treated cells.

[1] = Buffer stability (phosphate buffer, 37° C., HPLC); format: physicochemical
Method: The representative compounds were first dissolved in a minimum quantity of DMSO in a volumetric flask and diluted up to the mark with diluent (water: acetonitrile 30:70). […] After the elapsed time, the buffer samples were diluted 4 times with acetonitrile and injected into an HPLC system. Quantification of representative compounds was done by HPLC.
HPLC method: Chromatographic separation was achieved on a Hypersil BDS C18 (100×4.6 mm, 5 μ) column using 25 mM KH2PO4 buffer (pH 7 with TEA): acetonitrile, 90:10 v/v as mobile phase-A and 25 mM KH2PO4 buffer (pH 7 with TEA): acetonitrile 30:70 v/v as mobile phase-B. The gradient started with initially 5% B to 45% B in 10 mins followed by 80% B in 22 mins and held up to 25 mins and then returned to initial conditions at 26 mins and continued up to 30 mins. The injection volume was kept 10 μL and the flow rate was kept at 1.0 mL/min. The UV-Vis Detector was set at 220 nm, the column oven was set at 37° C. and the sample cooler was set at […]. Total chromatographic runtime was 30 min.

MX-1 cells = experiment: In-vitro cancer cell growth inhibition assay (MTT); format: cell-based; details: Homo sapiens, MX1, 144 h, read-out: IC50 (nM) MX-1
Method: (§1) The compounds of the present invention were evaluated for their ability to inhibit the growth of various cell line models of small cell lung cancer (SCLC), colon cancer, pancreatic cancer and triple negative breast cancer (TNBC) in-vitro. Details of the cell lines and their respective complete growth media are described in Table 3. The growth inhibition assay was carried out as described below. Briefly, cells in complete growth media were seeded in 96-well plates at appropriate cell densities (seeding density details described in Table 3) and incubated at 37° C., 5% CO2 (3-4 hours for NCI-H526, NCI-H69, NCI-H187 and overnight for the rest of the cells). Serial dilutions of test compound in DMSO were added to the cells while maintaining the final DMSO concentration of 0.4%-0.5% in the well. Plates were incubated for 96-144 h (the exact duration for each assay is described in Table 3) at 37° C., 5% CO2. Subsequently, MTT (final concentration 0.5 mg/mL in media) was incubated with the cells at 37° C., 5% CO2 for 4-5 hours. The formazan crystals were dissolved overnight at 37° C., 5% CO2 using 100 μL extractant (10% SDS in 0.01N HCl) and quantified using absorbance at 570 nm with reference wavelength 630 nm. Growth inhibition was represented as percent decrease in absorbance compared to vehicle treated cells.

PANC-1 cells = experiment: In-vitro cancer cell growth inhibition assay (MTT); format: cell-based; details: Homo sapiens, PANC-1, 96 h, read-out: IC50 (nM) PANC-1
Method: as §1

NCI H69 cells = experiment: In-vitro cancer cell growth inhibition assay (MTT); format: cell-based; details: Homo sapiens, NCI-H69, 144 h, read-out: IC50 (nM) NCI H69
Method: as §1

HT-29 cells = experiment: In-vitro cancer cell growth inhibition assay (MTT); format: cell-based; details: Homo sapiens, HT-29, 96 h, read-out: IC50 (nM) HT-29
Method: as §1

MDA-MB-231 cells = experiment: In-vitro cancer cell growth inhibition assay (MTT); format: cell-based; details: Homo sapiens, MDA-MB-231, 96 h, read-out: IC50 (nM) MDA-MB-231
Method: as §1

MDA-MB-468 cells = experiment: In-vitro cancer cell growth inhibition assay (MTT); format: cell-based; details: Homo sapiens, MDA-MB-468, 96 h, read-out: IC50 (nM) MDA-MB-468
Method: as §1

[2] = mouse, 2000 ng/mL, pH 5.5
Method: Aliquot of 100 μL were taken from stability samples in pre-labelled micro-centrifuge tubes. 5 μL of cetirizine working internal standard (5 μg/mL) was added to each tube and vortexed well. 1 mL acetonitrile was added to each tube and vortexed well and then centrifuge at 10000 RPM for 5 min at room temperature. The supernatant was collected in ria vials and evaporated to dryness under nitrogen stream. The samples were reconstituted in 1 mL of 0.1% formic acid in water: acetonitrile 30:70 v/v. The prepared samples were analyzed using LC-MS/MS method. Quantification was done against SN-38 standard, prepared at 2000 ng/mL concentration. SN-38 standard prepared by spiking 5 μL of SN-38 working standard to 95 μL of blank mice tumor homogenate to achieve 2000 ng/mL concentration and vortexed well and processed as described.
LC-MS/MS Method: Chromatographic separation was achieved on Inertsil C8-3 (50×4.6 mm, 5 μ) with a flow rate of 250 μL/min and an injection volume of 10 μL. The sample cooler was maintained at 10° C. The column oven temperature was set to 40° C. The mobile phase consisted of 0.1% formic acid in Milli Q water and acetonitrile in the ratio of 30:70 v/v, respectively. […] The overall chromatographic run time was 4.0 minutes.
Detection was performed by tandem mass spectrometry (TSQ Quantum, Discovery MAX, Thermo Electron Corporation) and peak areas were integrated using LCquan software version 2.9 QF1.
0 hr standard area was considered as 100% for calculation.

CCc1c2c(nc3ccc(O)cc13)-c1cc3c(c(=O)n1C2)COC(=O)[C@@]3(CC)OC(=O)OCCSSCCNC(=O)c1ccc(CN2CCN(C)CC2)cc1 [Compound I.6, 2-(2-{4-[4-Methylpiperazin-1-ylmethyl]benzoylamino}ethyldisulfanyl)ethyl [(4S)-4,11-diethyl-3,4,12,14-tetrahydro-9-hydroxy-1H-pyrano[3′,4′:6,7]indolizino[1,2-b]quinoline-3,14-(4H,12H)dione-4-yl] carbonate dihydrochloride]
IC50 (NCI H187 cells): 0.23 nM | % of Unconverted Compounds of Formula I ([1]; pH 4.7, 0 hr, 100 μg/ml (footnote *)): 100% | % of Unconverted Compounds of Formula I ([1]; pH 4.7, 2 hr, 100 μg/ml (footnote *)): 96.8% | % of Unconverted Compounds of Formula I ([1]; pH 4.7, 4 hr, 100 μg/ml (footnote *)): 89.8% | % of Unconverted Compounds of Formula I ([1]; pH 4.7, 8 hr, 100 μg/ml (footnote *)): 89.0% | % of Unconverted Compounds of Formula I ([1]; pH 6.0, 0 hr, 100 μg/ml (footnote *)): 100% | % of Unconverted Compounds of Formula I ([1]; pH 6.0, 2 hr, 100 μg/ml (footnote *)): 89.9% | % of Unconverted Compounds of Formula I ([1]; pH 6.0, 4 hr, 100 μg/ml (footnote *)): 89.4% | % of Unconverted Compounds of Formula I ([1]; pH 6.0, 6 hr, 100 μg/ml (footnote *)): 82.5% | % of Unconverted Compounds of Formula I ([1]; pH 6.0, 8 hr, 100 μg/ml (footnote *)): 84.3% | % of Unconverted Compounds of Formula I ([1]; pH 7.4, 0 hr, 100 μg/ml (footnote *)): 100% | % of Unconverted Compounds of Formula I ([1]; pH 7.4, 2 hr, 100 μg/ml (footnote *)): 90.7% | % of Unconverted Compounds of Formula I ([1]; pH 7.4, 4 hr, 100 μg/ml (footnote *)): 81.4% | % of Unconverted Compounds of Formula I ([1]; pH 7.4, 6 hr, 100 μg/ml (footnote *)): 83.7% | % of Unconverted Compounds of Formula I ([1]; pH 7.4, 8 hr, 100 μg/ml (footnote *)): 84.6% | IC50 (MX-1 cells): 5.4 nM | IC50 (PANC-1 cells): 1140 nM | IC50 (NCI H69 cells): 2.3 nM | IC50 (HT-29 cells): 15.7 nM | IC50 (MDA-MB-231 cells): 158 nM | IC50 (MDA-MB-468 cells): 13.7 nM

CCc1c2c(nc3ccc(O)cc13)-c1cc3c(c(=O)n1C2)COC(=O)[C@@]3(CC)OC(=O)CCCSSCCCC(=O)Nc1ccc(N2CCN(C)CC2)cc1.Cl [Compound I.1, 4-[3-(4-(4-Methylpiperazin-1-yl)phenylcarbamoyl)propyldisulfanyl][(4S)-4,11-diethyl-3,4,12,14-tetrahydro-9-hydroxy-1H-pyrano[3′,4′:6,7]indolizino[1,2-b]quinoline-3,14-(4H,12H)dione-4-yl]butyrate hydrochloride]
% of Unconverted Compounds of Formula I ([1]; pH 4.7, 0 hr, 200 μg/ml): 100% | % of Unconverted Compounds of Formula I ([1]; pH 4.7, 2 hr, 200 μg/ml): 96.3% | % of Unconverted Compounds of Formula I ([1]; pH 4.7, 4 hr, 200 μg/ml): 97.4% | % of Unconverted Compounds of Formula I ([1]; pH 4.7, 6 hr, 200 μg/ml): 100.0% | % of Unconverted Compounds of Formula I ([1]; pH 4.7, 8 hr, 200 μg/ml): 100% | % of Unconverted Compounds of Formula I ([1]; pH 6.0, 0 hr, 200 μg/ml): 100% | % of Unconverted Compounds of Formula I ([1]; pH 6.0, 2 hr, 200 μg/ml): 95.4% | % of Unconverted Compounds of Formula I ([1]; pH 6.0, 4 hr, 200 μg/ml): 97.1% | % of Unconverted Compounds of Formula I ([1]; pH 6.0, 6 hr, 200 μg/ml): 97.2% | % of Unconverted Compounds of Formula I ([1]; pH 6.0, 8 hr, 200 μg/ml): 97.1% | % of Unconverted Compounds of Formula I ([1]; pH 7.4, 0 hr, 200 μg/ml): 100% | % of Unconverted Compounds of Formula I ([1]; pH 7.4, 2 hr, 200 μg/ml): 97.7% | % of Unconverted Compounds of Formula I ([1]; pH 7.4, 4 hr, 200 μg/ml): 95.5% | % of Unconverted Compounds of Formula I ([1]; pH 7.4, 6 hr, 200 μg/ml): 100.0% | % of Unconverted Compounds of Formula I ([1]; pH 7.4, 8 hr, 200 μg/ml): 100%

CCc1c2c(nc3ccc(OC(=O)N4CCC(N5CCCCC5)CC4)cc13)-c1cc3c(c(=O)n1C2)COC(=O)[C@]3(O)CC [Irinotecan, irinotecan hydrochloride]
% Remaining in tumor lysate ([2]; 0 h): 100.0% | Concentration of SN-38 formed from the substance ([2]; 0 h): 0.0 ng/mL | % Remaining in tumor lysate ([2]; 1 h): 110.5% | Concentration of SN-38 formed from the substance ([2]; 1 hr): 9.4 ng/mL | % Remaining in tumor lysate ([2]; 2 h): 95.4% | Concentration of SN-38 formed from the substance ([2]; 2 hr): 17.5 ng/mL | % Remaining in tumor lysate ([2]; 4 h): 93.1% | Concentration of SN-38 formed from the substance ([2]; 4 hr): 22.8 ng/mL | % Remaining in tumor lysate ([2]; 6 h): 82.3% | Concentration of SN-38 formed from the substance ([2]; 6 hr): 25.5 ng/mL | Concentration of SN-38 formed from the substance ([2]; 8 h): 29.6 ng/mL
